From patent publication US12258354B2, “AhR modulators” (IDEAYA BIOSCIENCES, INC., priority 2018, dated 2025)
pIC50: −log10 of the molar value.

What follows are compounds tested against T1, hAhR (Homo sapiens, UniProt P35869) (assay: DRE-luciferase transcriptional reporter assay in HEPG2 DRE-Luc cells, TCDD-induced (antagonist mode)). Conditions: relative IC50, 3 nM TCDD, 24-hour incubation, firefly luciferase readout.
T1 construct: Stably integrated DRE-luciferase cell lines were generated by transducing the both cell lines with Cignal XRE luciferase reporter; endogenous in cells; host or cells: HEPG2 DRE-Luc cells (only the XRE luciferase reporter was transduced)
T1 sequence (P35869 11-848): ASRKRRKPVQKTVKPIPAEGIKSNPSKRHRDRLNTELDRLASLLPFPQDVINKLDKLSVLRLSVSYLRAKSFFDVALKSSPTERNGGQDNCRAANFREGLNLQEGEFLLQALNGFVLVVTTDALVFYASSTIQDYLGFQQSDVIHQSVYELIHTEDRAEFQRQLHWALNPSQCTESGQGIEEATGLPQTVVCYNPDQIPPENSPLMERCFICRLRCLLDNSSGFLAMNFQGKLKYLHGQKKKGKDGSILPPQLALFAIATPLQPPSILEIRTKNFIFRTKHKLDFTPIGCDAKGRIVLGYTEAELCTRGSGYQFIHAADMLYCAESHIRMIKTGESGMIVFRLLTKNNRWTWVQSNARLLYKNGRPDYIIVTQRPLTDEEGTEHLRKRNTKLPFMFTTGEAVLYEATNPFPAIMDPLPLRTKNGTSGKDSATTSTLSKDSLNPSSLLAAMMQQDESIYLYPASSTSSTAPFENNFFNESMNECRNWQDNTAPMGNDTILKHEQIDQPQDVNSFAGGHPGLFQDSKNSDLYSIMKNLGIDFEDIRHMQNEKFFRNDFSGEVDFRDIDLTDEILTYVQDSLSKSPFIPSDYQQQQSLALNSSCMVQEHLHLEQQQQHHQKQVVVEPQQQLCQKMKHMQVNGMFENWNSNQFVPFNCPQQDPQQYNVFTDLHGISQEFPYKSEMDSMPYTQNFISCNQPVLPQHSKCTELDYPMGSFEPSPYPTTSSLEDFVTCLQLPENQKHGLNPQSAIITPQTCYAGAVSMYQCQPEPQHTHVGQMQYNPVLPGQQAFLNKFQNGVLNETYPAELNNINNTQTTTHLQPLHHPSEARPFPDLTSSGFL
Assay type: cell-based
In short: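 Stable DRE(XRE)-luciferase HEPG2 clone seeded in OptiMEM with 0.5% heat-inactivated FBS, then given a semi-log compound dilution plus TCDD at 3 nM final. After 24 h, cells were lysed and firefly luminescence read. Response was normalised between TCDD and vehicle, and relative IC50 was taken as half-reduction between the fitted curve plateaus.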

Compound | pIC50
Cc1cc(-c2ncc3nc(F)ccc3n2)ccc1N1CCOc2cnn(C)c2C1=O [compound 051, 7-(4-(6-fluoropyrido[3,2-d]pyrimidin-2-yl)-2-methylphenyl)-1-methyl-6,7-dihydro-1H-pyrazolo[3,4-f][1,4]oxazepin-8 (5H)-one] | 6.30 to 6.70
Cc1cc(-c2ccc3nc(F)ccc3n2)ccc1N1CCOc2cnn(C)c2C1=O [compound 052, 7-(4-(6-fluoro-1,5-naphthyridin-2-yl)-2-methylphenyl)-1-methyl-6,7-dihydro-1H-pyrazolo[3,4-f][1,4]oxazepin-8 (5H)-one] | 6.00 to 6.30
Cc1cc(-c2ncc3cc(F)ccc3n2)ccc1N1CCOc2cnn(C)c2C1=O [compound 053, 7-(4-(6-fluoroquinazolin-2-yl)-2-methylphenyl)-1-methyl-6,7-dihydro-1H-pyrazolo[3,4-f][1,4]oxazepin-8 (5H)-one] | 6.30 to 6.70
Cc1cc(-c2ncc3cc(C(F)(F)F)ccc3n2)ccc1N1CCOc2cccnc2C1=O [compound 054, 4-(2-methyl-4-(6-(trifluoromethyl)quinazolin-2-yl)phenyl)-3,4-dihydropyrido[2,3-f][1,4]oxazepin-5 (2H)-one] | 6.30 to 6.70
Cc1cc(-c2ncc3cc(C(F)(F)F)ccc3n2)ccc1N1CCOc2cncnc2C1=O [compound 055, 8-(2-methyl-4-(6-(trifluoromethyl)quinazolin-2-yl)phenyl)-7,8-dihydropyrimido[4,5-f][1,4]oxazepin-9 (6H)-one] | 6.30 to 6.70
Cc1cc(-c2ncc3cc(C(F)(F)F)ccc3n2)ccc1N1CCn2nc(C(=O)O)c(C)c2C1=O [compound 060, 3-methyl-5-(2-methyl-4-(6-(trifluoromethyl)quinazolin-2-yl)phenyl)-4-oxo-4,5,6,7-tetrahydropyrazolo[1,5-a]pyrazine-2-carboxylic acid] | 6.30 to 6.70
Cc1cc(-c2ncc3cc(C(F)(F)F)ccc3n2)ccc1N1CCn2ncc(C(=O)O)c2C1=O [compound 065, 5-(2-methyl-4-(6-(trifluoromethyl)quinazolin-2-yl)phenyl)-4-oxo-4,5,6,7-tetrahydropyrazolo[1,5-a]pyrazine-3-carboxylic acid] | 6.00 to 6.30
Cc1cc(-c2ncc3cc(C(F)(F)F)ccc3n2)ccc1N1CCOc2cnn(CCN3CCOCC3)c2C1=O [compound 071, 7-(2-methyl-4-(6-(trifluoromethyl)quinazolin-2-yl)phenyl)-1-(2-morpholinoethyl)-6,7-dihydro-1H-pyrazolo[3,4-f][1,4]oxazepin-8 (5H)-one] | 6.00 to 6.30
Cc1cc(-c2ncc3cc(C(F)(F)F)ccc3n2)ccc1N1CCOc2cnn(CCN3CCC(O)CC3)c2C1=O [compound 072, 1-(2-(4-hydroxypiperidin-1-yl)ethyl)-7-(2-methyl-4-(6-(trifluoromethyl)-quinazolin-2-yl)phenyl)-6,7-dihydro-1H-pyrazolo[3,4-f][1,4]oxazepin-8 (5H)-one] | 5.00 to 6.00

Further lines, results first:

pIC50 | Compound
> 6.70 | Cn1ncc2c1C(=O)N(c1ccc(-c3ncc4nc(C(F)(F)F)ccc4n3)cc1)CCO2 [compound 050, 1-methyl-7-(4-(6-(trifluoromethyl)pyrido[3,2-d]pyrimidin-2-yl)phenyl)-6,7-dihydro-1H-pyrazolo[3,4-f][1,4]oxazepin-8 (5H)-one]
> 6.70 | CCOC(=O)c1nn2c(c1C)C(=O)N(c1ccc(-c3ncc4cc(C(F)(F)F)ccc4n3)cc1C)CC2 [compound 056, ethyl 3-methyl-5-(2-methyl-4-(6-(trifluoromethyl)quinazolin-2-yl)phenyl)-4-oxo-4,5,6,7-tetrahydropyrazolo[1,5-a]pyrazine-2-carboxylate]
> 6.70 | Cc1cc(-c2ncc3cc(C(F)(F)F)ccc3n2)ccc1N1CCn2nc(CO)c(C)c2C1=O [compound 057, 2-(hydroxymethyl)-3-methyl-5-(2-methyl-4-(6-(trifluoromethyl)-quinazolin-2-yl)phenyl)-6,7-dihydropyrazolo[1,5-a]pyrazin-4 (5H)-one]
> 6.70 | Cc1cc(-c2ncc3cc(C(F)(F)F)ccc3n2)ccc1N1CCn2nc(C(C)O)c(C)c2C1=O (stereo not shown) [compound 058, 2-(1-hydroxyethyl)-3-methyl-5-(2-methyl-4-(6-(trifluoromethyl)-quinazolin-2-yl)phenyl)-6,7-dihydropyrazolo[1,5-a]pyrazin-4 (5H)-one]
> 6.70 | Cc1cc(-c2ncc3cc(C(F)(F)F)ccc3n2)ccc1N1CCn2nc(C(C)(C)O)c(C)c2C1=O [compound 059, 2-(2-hydroxypropan-2-yl)-3-methyl-5-(2-methyl-4-(6-(trifluoromethyl)-quinazolin-2-yl)phenyl)-6,7-dihydropyrazolo[1,5-a]pyrazin-4 (5H)-one]
> 6.70 | Cc1cc(-c2ncc3cc(C(F)(F)F)ccc3n2)ccc1N1CCn2nc(CN3CCOCC3)c(C)c2C1=O [compound 061, 3-methyl-5-(2-methyl-4-(6-(trifluoromethyl)quinazolin-2-yl)phenyl)-2-(morpholinomethyl)-6,7-dihydropyrazolo[1,5-a]pyrazin-4 (5H)-one]
> 6.70 | Cc1cc(-c2ncc3cc(C(F)(F)F)ccc3n2)ccc1N1CCn2nc(C(=O)N3CCOCC3)c(C)c2C1 [compound 062, (3-methyl-5-(2-methyl-4-(6-(trifluoromethyl)quinazolin-2-yl)phenyl)-4,5,6,7-tetrahydropyrazolo[1,5-a]pyrazin-2-yl)(morpholino)methanone]
> 6.70 | Cc1cc(-c2ncc3cc(C(F)(F)F)ccc3n2)ccc1N1CCn2nc(CN(C)C)c(C)c2C1=O [compound 063, 2-((dimethylamino)methyl)-3-methyl-5-(2-methyl-4-(6-(trifluoromethyl)-quinazolin-2-yl)phenyl)-6,7-dihydropyrazolo[1,5-a]pyrazin-4 (5H)-one]
> 6.70 | Cc1cc(-c2ncc3cc(C(F)(F)F)ccc3n2)ccc1N1CCn2ncc(Br)c2C1=O [compound 064, 3-bromo-5-(2-methyl-4-(6-(trifluoromethyl)quinazolin-2-yl)phenyl)-6,7-dihydropyrazolo[1,5-a]pyrazin-4 (5H)-one]
> 6.70 | Cc1cc(-c2ncc3cc(C(F)(F)F)ccc3n2)ccc1N1CCn2ncc(C(N)=O)c2C1=O [compound 066, 5-(2-methyl-4-(6-(trifluoromethyl)quinazolin-2-yl)phenyl)-4-oxo-4,5,6,7-tetrahydropyrazolo[1,5-a]pyrazine-3-carboxamide]
> 6.70 | Cc1cc(-c2ncc3cc(C(F)(F)F)ccc3n2)ccc1N1CCn2ncc(C#N)c2C1=O [compound 067, 5-(2-methyl-4-(6-(trifluoromethyl)quinazolin-2-yl)phenyl)-4-oxo-4,5,6,7-tetrahydropyrazolo[1,5-a]pyrazine-3-carbonitrile]
> 6.70 | Cc1cc(-c2ncc3cc(C(F)(F)F)ccc3n2)ccc1N1CCn2ncc(N3CCOCC3)c2C1=O [compound 068, 5-(2-methyl-4-(6-(trifluoromethyl)quinazolin-2-yl)phenyl)-3-morpholino-6,7-dihydropyrazolo[1,5-a]pyrazin-4 (5H)-one]
> 6.70 | Cc1cc(-c2ncc3cc(C(F)(F)F)ccc3n2)ccc1N1CCn2ncc(CN3CCOCC3)c2C1=O [compound 070, 5-(2-methyl-4-(6-(trifluoromethyl)quinazolin-2-yl)phenyl)-3-(morpholino-methyl)-6,7-dihydropyrazolo[1,5-a]pyrazin-4 (5H)-one]
